According to US20200288683A1, “LOSS OF FUNCTION RODENT MODEL OF SOLUTE CARRIER 39 MEMBER 5” (Regeneron Pharmaceuticals, Inc., priority 2019, published 2020):

Experiments:
[1] = test system: LKB1/AMPK and AKT signaling pathways in human primary hepatocytes; experiment: Zinc activation of LKB1/AMPK and AKT signaling in human primary hepatocytes (immunoblot); assay type: cell-based; settings: human primary hepatocytes (5-donor pool, HM CPP5, Thermofisher); acute; FIG. 12B
Method: (§1) FIGS. 12A-12B. […] 1° Hu Hepatocytes* (5-donor pool): HM CPP5, Thermofisher.
(§2) Liver protein was extracted using RIPA buffer (Cell signaling technology, Cat #9806) with Halt Protease & Phosphatase Inhibitor Cocktail (ThermoFisher Scientific, Cat #78440). Five microgram protein of each sample were separated in NuPAGE 4-12% Bis-Tris protein gel (Invitrogen, Cat # WG1403BOX), and transferred to nitrocellulose membrane using Trans-Blot® Turbo™ Transfer System (BioRad). Blotting was performed using the following Cell Signaling Technology antibodies: Phospho-AMPKa (Thr172) (Cell signaling technology, Cat #2535), AMPKa (Cell signaling technology, Cat #5831), 13-Actin (Sigma, Cat #5441), Phospho-AKT (Ser473) (Cell signaling technology, Cat #4060), AKT (Cell signaling technology, Cat #9272), Phospho-LKB1 (Ser428) (Cell signaling technology, Cat #3482), LKB1 (Cell signaling technology, Cat #3050), rabbit IgG conjugated to horseradish peroxidase (HRP) (Cell signaling technology, Cat #7074) and mouse IgG conjugated to HRP (Cell signaling technology, Cat #7076). Blots were developed using SuperSignal West Femto Substrate (ThermoFisher Scientific, Cat #34095). Signals were captured using ImageQuant LAS4000 (GE Healthcare).

[2] = test system: LKB1/AMPK and AKT signaling pathways in human hepatoma HepG2 cells; experiment: Zinc activation of LKB1/AMPK and AKT signaling in HepG2 cells (immunoblot); assay type: cell-based; settings: acute, FIG. 12A
Method: as §1, §2

**Q.** For `[Zn]` [Zinc], which “activation of LKB1/AMPK and AKT signaling pathways” value [1] is on record?
**A.** activates LKB1/AMPK and AKT signaling pathways in dose dependent manner

**Q.** And the “activation of LKB1/AMPK and AKT signaling pathways” value [2]?
**A.** activates LKB1/AMPK and AKT signaling pathways in dose dependent manner
